In ChEMBL document CHEMBL1132598, “Synthesis, corticotropin-releasing factor receptor binding affinity, and pharmacokinetic properties of triazolo-, imidazo-, and pyrrolopyrimidines and -pyridines” (J Med Chem, 1999):

Target: T1, Corticotropin-releasing factor receptor 1 (Homo sapiens, UniProt P34998)
T1 sequence (P34998 whole entry): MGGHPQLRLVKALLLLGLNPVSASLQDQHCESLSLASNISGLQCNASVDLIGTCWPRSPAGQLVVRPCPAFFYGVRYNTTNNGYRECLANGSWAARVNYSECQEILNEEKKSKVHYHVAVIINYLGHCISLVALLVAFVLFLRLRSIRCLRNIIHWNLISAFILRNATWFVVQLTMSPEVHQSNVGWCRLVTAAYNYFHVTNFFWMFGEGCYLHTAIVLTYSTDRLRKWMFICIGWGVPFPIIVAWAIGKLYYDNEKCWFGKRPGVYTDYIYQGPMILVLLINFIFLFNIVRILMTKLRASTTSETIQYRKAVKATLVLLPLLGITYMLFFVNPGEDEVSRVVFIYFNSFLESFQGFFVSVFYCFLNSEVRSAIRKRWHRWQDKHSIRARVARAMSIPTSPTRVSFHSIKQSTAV
Assay: Binding affinity to recombinant human Corticotropin releasing factor receptor 1 (hCRF1) expressed in 293EBNA cells
Assay type: cell-based

SMILES | Ki [nM]
CCC(CC)Nc1nc(C)nc2c1nnn2-c1ccc(C(C)C)cc1Br | 5.2
CCN(CCOC)c1nc(C)nc2c1ncn2-c1ccc(C(C)C)cc1Br | 9.2
COCCN(CCOC)c1cc(C)nc2c1nnn2-c1ccc(C(C)C)cc1S(C)(=O)=O | 476
CCCC(CCC)Nc1nc(C)nc2c1nnn2-c1ccc(Br)cc1Br | 0.8
COCC(COC)Nc1nc(C)nc2c1nnn2-c1ccc(C(C)C)cc1Br | 10.3
CCCCN(CC)c1cc(C)nc2c1nnn2-c1ccc(C(C)C)cc1SC | 2.2
CCN(c1nc(C)nc2c1nnn2-c1ccc(C(C)C)cc1Br)C(COC)COC | 123
CCCC(CC)Nc1nc(C)nc2c1ncn2-c1ccc(C(C)C)cc1Br (stereo not given) | 4.4
CCN(CCOC)c1nc(C)nc2c1nnn2-c1ccc(C(C)C)cc1Br | 10.5
COCCN(CCOC)c1cc(C)nc2c1nnn2-c1ccc(C(C)C)cc1SC | 4.7
CCCCN(CC)c1cc(C)nc2c1nc(C)n2-c1ccc(C(C)C)cc1Br | 3.9
CCC(CC)Oc1nc(C)nc2c1nnn2-c1ccc(C(C)C)cc1Br | 1.9
COCCN(CCOC)c1nc(C)nc2c1nc(C)n2-c1ccc(C(C)C)cc1Br | 6.7
CCCC(CCC)Nc1nc(C)nc2c1ncn2-c1ccc(C(C)C)cc1Br | 3.6
COCCN(Cc1cccnc1)c1nc(C)nc2c1nnn2-c1ccc(C(C)C)cc1Br | 48.5
CCCCNc1nc(C)nc2c1nnn2-c1ccc(C(C)C)cc1Br | 69.6
CCCCN(CC)c1nc(C)nc2c1nnn2-c1c(C)cc(C)cc1C | 27.5
CCCCNc1nc(C)nc2c1c(C)c(C)n2-c1c(C)cc(C)cc1C | 29
COCCN(CCOC)c1nc(C)nc2c1nnn2-c1ccc(N(C)C)cc1Br | 10.5
Cc1cc(C)c(-n2c(C)c(C)c3c(N4CCOCC4)nc(C)nc32)c(C)c1 | 201
COCCN(CCOC)c1nc(C)nc2c1nnn2-c1ccc(OC(F)(F)F)cc1Br | 33.2
COCCN(CC1CC1)c1nc(C)nc2c1nnn2-c1ccc(C(C)C)cc1Br | 4.6
CCCCN(CC)c1nc(C)nc2c1nnn2-c1ccc(N(C)C)cc1C(F)(F)F | 15.4

SMILES | Ki [nM]
CCN(CCOC)c1nc(C)nc2c1nnn2-c1c(C)cc(C)cc1C | 20.7
CCC(Nc1nc(C)nc2c1nnn2-c1ccc(C(C)C)cc1Br)C(=O)OC (stereo not given) | 19.4
CCCCN(CC)c1nc(C)nc2c1c(C)cn2-c1c(C)cc(C)cc1C [CP-154526] | 1.61
CCN(CC)c1nc(C)nc2c1nnn2-c1ccc(C(C)C)cc1Br | 25.3
COCCN(CCOC)c1nc(C)nc2c1nnn2-c1c(Cl)cc(OC)cc1OC | 21
CCC(CO)Nc1nc(C)nc2c1nnn2-c1ccc(C(C)C)cc1Br (stereo not given) | 25.3
CCCCC(CCCC)Nc1nc(C)nc2c1nnn2-c1ccc(C(C)C)cc1Br | 4.5
CCOCC(COCC)Oc1nc(C)nc2c1nnn2-c1ccc(C(C)C)cc1Br | 39.7
CCCCN(CC)c1nc(C)nc2c1nnn2-c1ccc(SC)cc1Br | 10.6
COCCN(CCOC)c1nc(C)nc2c1nnn2-c1c(Br)cc(OC)cc1N(C)C | 48.2
CCCCN(CC)c1nc(C)nc2c1ncn2-c1c(Br)cc(OC)cc1OC | 3.5
COCC(Cc1ccccc1)Nc1nc(C)nc2c1nnn2-c1c(C)cc(C)cc1C (stereo not given) | 27.7
COCCN(CCOC)c1nc(C)nc2c1nnn2-c1c(C)cc(C)nc1C | 416
COCCN(CCOC)c1nc(C)nc2c1nnn2-c1ccc(C(C)C)cc1 | 3920
CCCCN(CC)c1nc(C)nc2c1nnn2-c1c(Br)cc(OC)cc1OC | 3
COCC(C)(C)Nc1nc(C)nc2c1nnn2-c1ccc(C(C)C)cc1Br | 195
CCC(CC)Oc1nc(C)nc2c1ncn2-c1ccc(C(C)C)cc1Br | 3.5
COCCN(CCO)c1nc(C)nc2c1nnn2-c1ccc(C(C)C)cc1Br | 64
CCCCN(CCCC)c1nc(C)nc2c1ncn2-c1ccc(C(C)C)cc1Br | 6.1
COCCCN(CCOC)c1nc(C)nc2c1nnn2-c1ccc(C(C)C)cc1Br | 66.9
CCCCN(CC)c1nc(C)nc2c1ncn2-c1ccc(C(C)C)cc1Br | 4.3
COCCN(CCOC)c1cc(C)nc2c1nnn2-c1ccc(C(C)C)cc1Br | 4.7
